The target of one assay is T1, human GAL3 receptor (Homo sapiens, UniProt O60755).
T1 construct: expressed in transfected cells
T1 sequence (O60755 1-368): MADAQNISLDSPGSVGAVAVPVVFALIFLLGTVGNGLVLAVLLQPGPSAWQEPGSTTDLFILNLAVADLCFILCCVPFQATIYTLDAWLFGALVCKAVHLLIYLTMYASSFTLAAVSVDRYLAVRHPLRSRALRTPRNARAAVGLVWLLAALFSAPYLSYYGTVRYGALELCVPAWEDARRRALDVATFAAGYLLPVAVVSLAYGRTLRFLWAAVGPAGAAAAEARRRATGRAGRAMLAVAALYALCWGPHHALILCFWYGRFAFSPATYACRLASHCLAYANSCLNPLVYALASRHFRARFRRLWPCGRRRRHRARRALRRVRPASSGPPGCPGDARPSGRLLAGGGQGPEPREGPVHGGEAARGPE
Nature of the assay: Radioligand binding at cloned human GAL3 receptor. As to conditions: for Ki: read-out: hGAL3 Ki. How it is done:
The present invention provides for a method of determining the binding affinity of a GAL3 antagonist, wherein the GAL3 antagonist is dissolved in a “suitable solvent”. A “suitable solvent” means one which permits the measurement of binding affinity of the GAL3 antagonist to the human GAL3 receptor at concentrations less than 1 μM, preferably less than 100 nM. Examples of solvents include, but are not limited to, DMSO, ethanol, N,N-dimethylacetamide, or water. For indolones, the preferred solvent is 3% DMSO (final concentration in the assay). For pyrimidines, the preferred solvent is 1% ethanol/0.09% polypuronic acid F-127 (final concentration in the assay). For any other type of compounds, the preferred solvent is the solvent which permits the measurement of binding affinity of a GAL3 antagonist at the lowest concentration. Once a suitable solvent is ascertained for the binding assay of the human GAL3 receptor, the same solvent is used in assays to determine the binding affinity for instance, at the GAL1 receptor.
The binding properties of the pyrimidines of the present invention were evaluated at the cloned human galanin receptors, GAL1, GAL2, and GAL3, using protocols described herein.
The binding properties of the indolones of the present invention were evaluated at the cloned human galanin receptors, GAL1, GAL2, and GAL3, using protocols described herein.
LM(tk-) cells were stably transfected with the human GAL1 or GAL3 receptor. CHO cells were stably transfected with the human GAL2 receptor.
cDNAs for the human and rat GAL1, and human and rat GAL3 receptors were transfected with a G-418 resistant gene into the mouse fibroblast LM(tk-) cell line by a calcium phosphate transfection method (Cullen, 1967). Stably transfected cells were selected with G-418. Human and rat GAL2 receptors were similarly transfected into CHO cells.
Membranes were harvested from stably transfected LM(tk-) cells. Adherent cells were washed twice in ice-cold phosphate buffered saline (138 mM NaCl, 8.1 mM Na2HPO4, 2.5 mM KCl, 1.2 mM KH2PO4, 0.9 mM CaCl2, 0.5 mM MgCl2, pH 7.4) and lysed by sonication in ice-cold sonication buffer (20 mM Tris-HCl, 5 mM EDTA, pH 7.7). Large particles and debris were cleared by low speed centrifugation (200×g, 5 min, 4° C.). Membranes were collected from the supernatant fraction by centrifugation (32,000×g, 18 min, 4° C.), washed with ice-cold hypotonic buffer, and collected again by centrifugation (32,000×g, 18 min, 4° C.). The final membrane pellet was resuspended by sonication into a small volume of ice-cold binding buffer (−1 ml for every 5 plates: 10 mM NaCl, 20 mM HEPES, 0.22 mM KH2PO4, 1.26 mM CaCl2, 0.81 mM MgSO4, pH 7.4). Protein concentration was measured by the Bradford method (Bradford, 1976) using Bio-Rad Reagent, with bovine serum albumin as a standard. Membranes were held on ice for up to one hour and used fresh, or flash frozen and stored in liquid nitrogen. Membranes were prepared similarly from CHO cells.
Galanin Receptors: Binding assays were performed according to the following published methods: human GAL3 (PCT International Publication No. WO 98/15570), human GAL1 (PCT International Publication No. WO 95/2260) human GAL2 (PCT International Publication No. WO 97/26853).
(§1) Binding data were analyzed using nonlinear regression and statistical techniques available in the GraphPAD Prism package (San Diego, Calif.). Enzymatic assay data were derived from a standard curve of reference compound data.

The test system of the next assay is Male Sprague-Dawley rats. Nature of the assay: Rat Forced Swim Test (FST). The format is in vivo. Particulars: for overall profile in the Forced Swim Test (conclusion in words): rat, in vivo.
A further assay has as its target T2, human 5HT2A receptor (Homo sapiens, UniProt P28223).
T2 construct: expressed in transfected cells; host or cells: COS-7 cells, transient, vector pCEXV-3
Nature of the assay: Radioligand binding at human 5HT2A receptor. As to conditions: read-out: h5HT2A Ki. The procedure:
Human 5HT2; Receptor: The coding sequence of the human 5HT2A receptor was obtained from a human brain cortex cDNA library, and cloned into the cloning site of pCEXV-3 eukaryotic expression vector. This construct was transfected into COS-7 cells by the DEAE-dextran method (Cullen, 1987). Cells were harvested after 72 hours and lysed by sonication in 5 mM Tris-HCl, 5 mM EDTA, pH 7.5. The cell lysates were subjected to centrifugation at 1000 rpm for 5 minutes at 4° C., and the supernatant was subjected to centrifugation at 30,000×g for 20 minutes at 4° C. The pellet was suspended in 50 mM Tris-HCl buffer (pH 7.7 at room temperature) containing 10 mM MgSO4, 0.5 mM EDTA, and 0.1% ascorbate. The affinity of compounds at 5HT2A receptors were determined in equilibrium competition binding assays using [^3H]ketanserin (1 nM). Nonspecific binding was defined by the addition of 10 μM mianserin. The bound radioligand was separated by filtration through GF/B filters using a cell harvester.
as §1

Setting [1] is: 0.3 mg/kg p.o., single administration 1 hr before 5 min test.
[2] abbreviates: 0.3 mg/kg p.o., single administration 1 hr before 5 min test, listed as EX34.
The mark [3] stands for this setting: 1 mg/kg p.o., single administration 1 hr before 5 min test.
Where [4] appears, read: 1 mg/kg p.o., single administration 1 hr before 5 min test, listed as EX34.
The mark [5] stands for this setting: 3 mg/kg p.o., single administration 1 hr before 5 min test.
[6] abbreviates: 3 mg/kg p.o., single administration 1 hr before 5 min test, listed as EX34.
Where [7] appears, read: 10 mg/kg p.o., single administration 1 hr before 5 min test.
[8] abbreviates: 10 mg/kg p.o., single administration 1 hr before 5 min test, listed as EX34.
Where [9] appears, read: 1 mg/kg i.p., single injection 1 h before 5 min test.
[10] abbreviates: 3 mg/kg i.p., single injection 1 h before 5 min test.
Where [11] appears, read: 10 mg/kg i.p., single injection 1 h before 5 min test.

Read-outs that look alike come from different tables or passages of the source. Marks after values point to notes of the source that are not given here. Where only a bound is given, the exact number is not on record here.

T2 sequence (P28223 whole entry): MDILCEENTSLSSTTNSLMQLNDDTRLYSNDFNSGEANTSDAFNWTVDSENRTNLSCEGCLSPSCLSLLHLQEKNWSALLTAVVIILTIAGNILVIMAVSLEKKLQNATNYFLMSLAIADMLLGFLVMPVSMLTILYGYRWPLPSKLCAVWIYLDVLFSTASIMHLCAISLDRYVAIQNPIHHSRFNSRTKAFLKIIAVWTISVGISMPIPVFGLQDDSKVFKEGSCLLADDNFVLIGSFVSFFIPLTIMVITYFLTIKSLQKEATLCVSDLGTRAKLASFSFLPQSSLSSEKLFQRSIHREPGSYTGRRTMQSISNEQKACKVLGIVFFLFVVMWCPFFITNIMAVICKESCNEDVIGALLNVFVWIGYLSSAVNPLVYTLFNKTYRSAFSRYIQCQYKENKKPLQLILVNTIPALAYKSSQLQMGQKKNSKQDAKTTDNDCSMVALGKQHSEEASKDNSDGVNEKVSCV

Consider `Cc1ccc(Nc2cc(N3CCCCC3)nc(N3CCN(c4ncccc4C(F)(F)F)CC3)n2)cc1` [Example 34], for which the “GAL3/GAL1 binding ratio (Ki GAL1 divided by Ki GAL3)” value on human GAL3 receptor is 39. The Climbing is recorded as 3.3 ± 0.7 counts in the assay with Male Sprague-Dawley rats (setting [1]); “significant increase in climbing” with Male Sprague-Dawley rats (setting [3]); 5.0 ± 0.8^c counts in the assay with Male Sprague-Dawley rats (setting [4]); 4.3 ± 0.8 counts in the assay on Male Sprague-Dawley rats (setting [5]); “did not significantly alter swimming or climbing” in the assay with Male Sprague-Dawley rats (setting [7]); 2.0 ± 0.4 counts with Male Sprague-Dawley rats (setting [8]). Moreover, the Diving entry was “not significantly altered” in the assay with Male Sprague-Dawley rats (setting [1]); 0.2 ± 0.1 counts with Male Sprague-Dawley rats (setting [2]); “not significantly altered” in the assay with Male Sprague-Dawley rats (setting [3]); 0.3 ± 0.2 counts in the assay on Male Sprague-Dawley rats (setting [4]); “not significantly altered” with Male Sprague-Dawley rats (setting [5]); 0.3 ± 0.3 counts with Male Sprague-Dawley rats (setting [6]). In addition, the Diving entry in the assay on Male Sprague-Dawley rats (setting [7]) was “not significantly altered”; in the assay with Male Sprague-Dawley rats (setting [8]) it was 0.4 ± 0.3 counts. In addition, the Immobility result in the assay on Male Sprague-Dawley rats (setting [1]) is given as “significantly decreased immobility”; in the assay with Male Sprague-Dawley rats (setting [2]) it was 45 ± 1.5^a counts; with Male Sprague-Dawley rats (setting [3]), “significantly decreased immobility”; in the assay on Male Sprague-Dawley rats (setting [4]), 35 ± 1.9^b counts; in the assay with Male Sprague-Dawley rats (setting [5]) it was “significantly decreased immobility”; in the assay on Male Sprague-Dawley rats (setting [6]), 35 ± 2.0^b counts. Further, the Immobility result with Male Sprague-Dawley rats (setting [7]) is “did not significantly decrease in immobility”; in the assay with Male Sprague-Dawley rats (setting [8]) it was 49 ± 1.4 counts. For the same compound, the Swimming entry was “significant increase in swimming behavior” with Male Sprague-Dawley rats (setting [1]); 11.6 ± 0.9^d counts in the assay on Male Sprague-Dawley rats (setting [2]); “significant increase in swimming behavior” in the assay on Male Sprague-Dawley rats (setting [3]); 19.6 ± 1.3^d,e counts in the assay on Male Sprague-Dawley rats (setting [4]); “significant increase in swimming behavior” with Male Sprague-Dawley rats (setting [5]); 20.8 ± 1.3^d,e counts in the assay with Male Sprague-Dawley rats (setting [6]). Besides, the Swimming entry in the assay with Male Sprague-Dawley rats (setting [7]) is recorded as “did not significantly alter swimming or climbing”; in the assay with Male Sprague-Dawley rats (setting [8]), 8.2 ± 1.2 counts. The “overall profile in the Forced Swim Test (conclusion in words)” value with Male Sprague-Dawley rats is given as “produces an effect in the FST that resembles that of antidepressants”. The Ki at human 5HT2A receptor was above 50000 nM.
On to `O=C1C(=Nc2cccc(C(F)(F)F)c2)c2ccccc2N1c1ccccc1` [Example 92, 1-PHENYL-3-[[3-(TRIFLUOROMETHYL)PHENYL]IMINO]-1,3-DIHYDRO-2H-INDOL-2-ONE], for which the results for the Ki on human GAL3 receptor (Table 7), on human GAL3 receptor (Table 9) and at human 5HT2A receptor were 38 nM, 38 nM and above 50000 nM, respectively. The Diving in the assay with Male Sprague-Dawley rats (setting [9]) was 0.6±0.2 counts; in the assay with Male Sprague-Dawley rats (setting [10]), 0.6±0.3 counts; with Male Sprague-Dawley rats (setting [11]), 0.5±0.5 counts; with Male Sprague-Dawley rats (30 mg/kg i.p., single injection 1 h before 5 min test), 0.2±0.2 counts. The Immobility with Male Sprague-Dawley rats (setting [9]) is recorded as 28 ± 1.0 counts. Also, the results for the Swimming in the assay with Male Sprague-Dawley rats (setting [9]), in the assay with Male Sprague-Dawley rats (setting [10]) and in the assay with Male Sprague-Dawley rats (setting [11]) were 20±1.1 counts, 21±0.9 counts and 18±0.9 counts, respectively. Besides, the “overall profile in the Forced Swim Test (conclusion in words)” value in the assay on Male Sprague-Dawley rats is reported as “has antidepressant-like properties”.
